Assay results taken from patent US20080161232A1, “C5a Receptor Antagonist” (JERINI AG, priority 2005, published 2008).
Starred links: 1 amine or outer side, 2 acyl side, 3 side chain; linkers in the order of their positions; H or OH if unused. Positions of bridges follow the written chain, without caps; N, C: chain ends. Non-standard residues stand in square brackets, D forms with d. Residues, ends and D or L forms follow the SMILES beside them. ξ: configuration not given here. *: point of attachment. Phe(4-guanidino) = N=C(N)Nc1ccc(C[C@H](N)C(=O)O)cc1; Phe(3-Cl) = N[C@@H](Cc1cccc(Cl)c1)C(=O)O; Phe(4-F) = N[C@@H](Cc1ccc(F)cc1)C(=O)O; 1Nal = N[C@@H](Cc1cccc2ccccc12)C(=O)O; His(τ-Me) = Cn1cnc(C[C@H](N)C(=O)O)c1; X11 = N=C(N)N[C@@H](Cc1ccccc1)C(=O)*; Bta = N[C@@H](Cc1csc2ccccc12)C(=O)O; NEtPhe = CCN[C@@H](Cc1ccccc1)C(=O)O; Hyp = O=C(O)[C@@H]1C[C@@H](O)CN1; d(hLeu) = CC(C)CC[C@@H](N)C(=O)O; ξNip = O=C(C1CCCN([*:1])C1)[*:2]; 2Thi = N[C@@H](Cc1cccs1)C(=O)O; Cit = NC(=O)NCCC[C@H](N)C(=O)O; dCha = N[C@H](CC1CCCCC1)C(=O)O; hLeu = CC(C)CC[C@H](N)C(=O)O; dNle = CCCC[C@@H](N)C(=O)O; X23 = O=C(CC(O)c1ccccc1)*; hSer = N[C@@H](CCO)C(=O)O; Nle = CCCC[C@H](N)C(=O)O; Orn = NCCC[C@H](N)C(=O)O; Aze = O=C(O)[C@@H]1CCN1

molecular target: T1, human C5aR(CD88) (Homo sapiens, UniProt P21730); assay: Determination of the IC50 value in an enzyme release assay (functional assay, antagonistic activity); format: cell-based; settings: antagonistic activity; IC50 group in enzyme release assay, RBL cells expressing human C5aR(CD88); read-out: activity (group)
T1 construct: expressed in transfected cells; host or cells: rat basophilic leukemia cells (RBL)
T1 sequence (P21730 1-350): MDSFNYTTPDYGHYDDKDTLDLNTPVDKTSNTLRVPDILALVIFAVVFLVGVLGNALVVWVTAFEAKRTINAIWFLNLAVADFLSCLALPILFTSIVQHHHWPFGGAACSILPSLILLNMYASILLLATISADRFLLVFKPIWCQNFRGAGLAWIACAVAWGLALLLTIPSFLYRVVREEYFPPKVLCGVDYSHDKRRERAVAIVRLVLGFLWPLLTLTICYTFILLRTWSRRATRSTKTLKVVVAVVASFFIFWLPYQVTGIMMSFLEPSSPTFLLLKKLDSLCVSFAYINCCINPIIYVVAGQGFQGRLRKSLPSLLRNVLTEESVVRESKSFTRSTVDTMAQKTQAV

SMILES	IC50
CC(=O)N[C@@H](Cc1ccccc1)C(=O)N[C@@H](CCCN)C(=O)N1C[C@H](O)C[C@H]1C(=O)N[C@H](CCC(C)C)C(=O)N[C@@H](Cc1csc2ccccc12)C(=O)N[C@@H](Cc1ccccc1)C(N)=O [Compound 244, Ac-Phe-Orn-Hyp-hle-Bta-Phe-NH2] (Ac-F[Orn][Hyp][d(hLeu)][Bta]F-NH2)	50 to 200 nM
CC(C)CC[C@@H]1NC(=O)[C@H](Cc2c[nH]c3ccccc23)NC(=O)[C@@H](CCC(C)C)NC(=O)[C@@H]2C[C@@H](O)CN2C(=O)[C@@H](NC(=O)[C@@H](N)Cc2ccccc2)CCCNC1=O [Compound 367, H-Phe-[Orn-Hyp-hle-Trp-Hle]] (H-F[Orn][Hyp][d(hLeu)]W[hLeu]; lactam 2-C)	50 to 200 nM
CC(C)CC[C@H]1NC(=O)[C@@H]2C[C@@H](O)CN2C(=O)[C@@H](NC(=O)[C@@H](N)Cc2ccccc2)CCCNC(=O)[C@H](Cc2ccccc2)NC(=O)[C@H](Cc2ccc(F)cc2)NC1=O [Compound 366, H-Phe-[Orn-Hyp-hle-Pff-Phe]] (H-F[Orn][Hyp][d(hLeu)][Phe(4-F)]F; lactam 2-C)	50 to 200 nM
CC(=O)N[C@@H](Cc1cccs1)C(=O)N[C@H]1CCCNC(=O)[C@H](Cc2ccccc2)NC(=O)[C@H](Cc2csc3ccccc23)NC(=O)[C@@H](CCC(C)C)NC(=O)[C@@H]2CCCN2C1=O [Compound 311, Ac-Thi-[Orn-Pro-hle-Bta-Phe]] (Ac-[2Thi][Orn]P[d(hLeu)][Bta]F; lactam 2-C)	50 to 200 nM
N=C(N)N[C@@H](Cc1ccccc1)C(=O)N[C@@H](CCCN)C(=O)N1CCC[C@H]1C(=O)N[C@H](CC1CCCCC1)C(=O)N[C@@H](Cc1csc2ccccc12)C(=O)N[C@@H](Cc1ccccc1)C(N)=O [Compound 339, Fhu-Phe-Orn-Pro-cha-Bta-Phe-NH2] (X11-[Orn]P[dCha][Bta]F-NH2)	50 to 200 nM
CCCC[C@H]1NC(=O)[C@H](Cc2c[nH]c3ccccc23)NC(=O)[C@@H](CC2CCCCC2)NC(=O)[C@@H]2CCCN2C(=O)[C@@H](NC(=O)[C@H](Cc2ccccc2)NC(C)=O)CCCNC1=O [Compound 194, Ac-Phe-[Orn-Pro-cha-Trp-nle]] (Ac-F[Orn]P[dCha]W[dNle]; lactam 2-C)	50 to 200 nM
CC(=O)N[C@@H](Cc1ccccc1)C(=O)N[C@@H](CCCN)C(=O)N1C[C@H](O)C[C@H]1C(=O)N[C@H](CCC(C)C)C(=O)N[C@@H](Cc1ccc(F)cc1)C(=O)N[C@@H](Cc1ccccc1)C(N)=O [Compound 245, Ac-Phe-Orn-Hyp-hle-Pff-Phe-NH2] (Ac-F[Orn][Hyp][d(hLeu)][Phe(4-F)]F-NH2)	50 to 200 nM
CC(=O)N[C@@H](Cc1ccccc1)C(=O)N[C@@H](Cc1csc2ccccc12)C(=O)N1CC[C@H]1C(=O)N[C@H](CC1CCCCC1)C(=O)N[C@@H](Cc1csc2ccccc12)C(=O)N[C@@H](Cc1ccccc1)C(N)=O [Compound 112, Ac-Phe-Bta-Aze-cha-Bta-Phe-NH2] (Ac-F[Bta][Aze][dCha][Bta]F-NH2)	20 to 50 nM
CC(=O)N[C@@H](Cc1ccccc1)C(=O)N[C@@H](CCCN)C(=O)N1CCC[C@H]1C(=O)N[C@H](CCC(C)C)C(=O)N[C@@H](Cc1ccccc1)C(=O)N[C@@H](Cc1ccccc1)C(N)=O [Compound 304, Ac-Phe-Orn-Pro-hle-Phe-Phe-NH2] (Ac-F[Orn]P[d(hLeu)]FF-NH2)	50 to 200 nM
CC(=O)N[C@@H](Cc1ccccc1)C(=O)N[C@@H](CCCNC(=N)N)C(=O)N1CCC[C@H]1C(=O)N[C@H](CC1CCCCC1)C(=O)N[C@@H](Cc1csc2ccccc12)C(=O)N[C@@H](Cc1ccccc1)C(N)=O [Compound 122, Ac-Phe-Arg-Pro-cha-Bta-Phe-NH2] (Ac-FRP[dCha][Bta]F-NH2)	20 to 50 nM
CC(=O)N[C@@H](Cc1ccccc1)C(=O)N[C@@H](CCCN)C(=O)N[C@@H](CCO)C(=O)N[C@H](CC1CCCCC1)C(=O)N[C@@H](Cc1csc2ccccc12)C(=O)N[C@@H](Cc1ccccc1)C(N)=O [Compound 243, Ac-Phe-Orn-Hse-cha-Bta-Phe-NH2] (Ac-F[Orn][hSer][dCha][Bta]F-NH2)	50 to 200 nM
CC(=O)N[C@@H](Cc1ccccc1)C(=O)N[C@@H](Cc1c[nH]c2ccccc12)C(=O)N1CCC[C@H]1C(=O)N[C@H](CC1CCCCC1)C(=O)N[C@@H](Cc1csc2ccccc12)C(=O)N[C@@H](Cc1ccccc1)C(N)=O [Compound 113, Ac-Phe-Trp-Pro-cha-Bta-Phe-NH2] (Ac-FWP[dCha][Bta]F-NH2)	50 to 200 nM
CC(C)CC[C@H]1NC(=O)[C@@H]2C[C@@H](O)CN2C(=O)[C@@H](NC(=O)[C@@H](N)Cc2ccccc2)CCCNC(=O)[C@H](CC(C)C)NC(=O)[C@H](Cc2cccc(Cl)c2)NC1=O [Compound 361, H-Phe-[Orn-Hyp-hle-Mcf-Leu]] (H-F[Orn][Hyp][d(hLeu)][Phe(3-Cl)]L; lactam 2-C)	50 to 200 nM
CC(=O)N[C@@H](Cc1ccccc1)C(=O)N[C@H]1CCCNC(=O)[C@H](Cc2cn(C)cn2)NC(=O)[C@H](Cc2c[nH]c3ccccc23)NC(=O)[C@@H](CC2CCCCC2)NC(=O)[C@@H]2CCCN2C1=O [Compound 20, Ac-Phe-[Orn-Pro-cha-Trp-Ecr]] (Ac-F[Orn]P[dCha]W[His(τ-Me)]; lactam 2-C)	50 to 200 nM
CCCC[C@@H]1NC(=O)[C@H](Cc2ccc(F)cc2)NC(=O)[C@@H](CCC(C)C)NC(=O)[C@@H]2CCCN2C(=O)[C@@H](NC(=O)[C@H](Cc2ccccc2)NCC)CCCNC1=O [Compound 319, Eth-Phe-[Orn-Pro-hle-Pff-Nle]] (H-[NEtPhe][Orn]P[d(hLeu)][Phe(4-F)][Nle]; lactam 2-C)	50 to 200 nM
CC(C)CC[C@@H](NC(=O)[C@@H]1CCCN1C(=O)[C@H](CCCNC(N)=O)NC(=O)[C@H](Cc1ccccc1)NC(=O)C1CCCNC1)C(=O)N[C@@H](Cc1csc2ccccc12)C(=O)N[C@@H](Cc1ccccc1)C(N)=O (stereo partly drawn) [Compound 346, H-Nip-Phe-Cit-Pro-hle-Bta-Phe-NH2] (ξNip-F[Cit]P[d(hLeu)][Bta]F-NH2)	50 to 200 nM
CCCC[C@@H]1NC(=O)[C@H](Cc2c[nH]c3ccccc23)NC(=O)[C@@H](CC2CCCCC2)NC(=O)[C@@H]2CCCN2C(=O)[C@@H](NC(=O)CC(O)c2ccccc2)CCCNC1=O (stereo partly drawn) [Compound 59, Ph-CH(OH)—CH2—CO-[Orn-Pro-cha-Trp-Nle]] (X23-[Orn]P[dCha]W[Nle]; lactam 1-C)	20 to 50 nM
CC(=O)N[C@@H](Cc1ccccc1)C(=O)N[C@@H](CCCNC(N)=O)C(=O)N1C[C@H](O)C[C@H]1C(=O)N[C@H](CCC(C)C)C(=O)N[C@@H](Cc1csc2ccccc12)C(=O)N[C@@H](Cc1ccccc1)C(N)=O [Compound 209, Ac-Phe-Cit-Hyp-hle-Bta-Phe-NH2] (Ac-F[Cit][Hyp][d(hLeu)][Bta]F-NH2)	50 to 200 nM
CC(=O)N[C@@H](Cc1ccccc1)C(=O)N[C@H]1CCCNC(=O)[C@H](Cc2cccc3ccccc23)NC(=O)[C@H](Cc2c[nH]c3ccccc23)NC(=O)[C@@H](CC2CCCCC2)NC(=O)[C@@H]2CCCN2C1=O [Compound 188, Ac-Phe-[Orn-Pro-cha-Trp-1Ni]] (Ac-F[Orn]P[dCha]W[1Nal]; lactam 2-C)	50 to 200 nM
CC(=O)N[C@@H](Cc1ccccc1)C(=O)N[C@@H](Cc1ccc(NC(=N)N)cc1)C(=O)N1CCC[C@H]1C(=O)N[C@H](CC1CCCCC1)C(=O)N[C@@H](Cc1csc2ccccc12)C(=O)N[C@@H](Cc1ccccc1)C(N)=O [Compound 228, Ac-Phe-Guf-Pro-cha-Bta-Phe-NH2] (Ac-F[Phe(4-guanidino)]P[dCha][Bta]F-NH2)	20 to 50 nM

same assay, conditions: functional assay of example 11; noteworthy = IC50 less than 200 nM

SMILES	inhibitory activity (in words)
CC(=O)N[C@@H](Cc1ccccc1)C(=O)N[C@H]1CCCNC(=O)[C@H](Cc2cn(C)cn2)NC(=O)[C@H](Cc2c[nH]c3ccccc23)NC(=O)[C@@H](CC2CCCCC2)NC(=O)[C@@H]2CCCN2C1=O [Compound 20, Ac-Phe-[Orn-Pro-cha-Trp-Ecr]] (Ac-F[Orn]P[dCha]W[His(τ-Me)]; lactam 2-C)	noteworthy inhibitory activity
